A word on the IC50: it is the concentration that inhibits the measured activity by half. Broadly, the Ki is the dissociation constant of the complex between target and ligand, obtained from inhibition or displacement. As usually defined, the Km is the concentration of substrate that gives half-maximal velocity.

Assay [1] concerns the target T1, Human ALDH3A1 (Homo sapiens, UniProt P30838).
T1 construct: made in house
T1 sequence (P30838 1-453): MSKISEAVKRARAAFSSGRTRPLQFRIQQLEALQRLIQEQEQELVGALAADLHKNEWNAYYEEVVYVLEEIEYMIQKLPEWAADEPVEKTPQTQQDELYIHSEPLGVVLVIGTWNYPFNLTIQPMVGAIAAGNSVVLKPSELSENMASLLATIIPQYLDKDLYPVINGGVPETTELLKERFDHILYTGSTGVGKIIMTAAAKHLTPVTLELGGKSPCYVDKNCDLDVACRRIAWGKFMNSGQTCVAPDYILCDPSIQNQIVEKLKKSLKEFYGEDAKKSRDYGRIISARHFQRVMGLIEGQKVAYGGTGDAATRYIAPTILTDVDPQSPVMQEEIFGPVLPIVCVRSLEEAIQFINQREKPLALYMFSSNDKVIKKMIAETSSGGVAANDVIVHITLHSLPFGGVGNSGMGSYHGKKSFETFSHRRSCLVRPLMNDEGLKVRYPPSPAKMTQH
The experiment in a line: ALDH3A1 inhibition, IC50, Ki and type of inhibition. Format: biochemical. As to conditions: for IC50: 31 μM 4-NBA as substrate.

For assay [2], the target named is T1, Human ALDH3A1. The experiment in a line: DEAB analogues as substrates of ALDH3A1 (substrate activity and kinetics). Format: biochemical. To be noted: for ALDH3A1 substrate activity: 10 μM compound as substrate, relative to activity with 10 μM 4-NBA (Figure S2). On the procedure:
Human ALDH1A1, ALDH1A3, and ALDH3A1 were cloned and recombinantly expressed from the pET-30 Xa/LIC vector. Protein purification was achieved by affinity chromatography on a nickel-charged chelating Sepharose Fast Flow 5-mL column (His Trap column, Cytiva), which specifically binds the protein due to its N-terminal (His)6 tag, using an ÄKTA FPLC system (Cytiva), as previously described.[55] Enzymes including the His tag were stored at −80 °C in 20 mM Tris/HCl and 0.5 M NaCl, pH 8.0, until use. Reaction buffers were as follows: ALDH1A1 was assayed in 50 mM HEPES, 0.5 mM EDTA, and 0.5 mM DTT, pH 8.0; ALDH1A3 was assayed in 50 mM HEPES, 30 mM MgCl2, and 5 mM DTT, pH 8.0; and ALDH3A1 was assayed in 50 mM Tris–HCl and 5 mM DTT, pH 8.0. Activity under standard conditions was measured fluorimetrically at 25 °C using a Cary Eclipse (Varian) fluorimeter to follow the purification procedure and to check the enzyme concentration before each kinetic experiment. The fluorescence of NADH was characterized at 460 nm with excitation at 340 nm, and 5 μM NAD(P)H was added as an internal standard to obtain the absolute reaction rates.[55] Standard activity was measured at saturating concentrations of substrate using 30 μM hexanal (ALDH1A1), 250 μM hexanal (ALDH1A3), or 250 μM 4-NBA (ALDH3A1). NAD^+ was 500 μM for ALDH1A1 and ALDH1A3, and NADP^+ was 1 mM for ALDH3A1.
According to their structure with a carbonyl group, compounds were tested for their substrate properties against ALDH1A1, ALDH1A3, and ALDH3A1. […] Results are expressed as the percentage of activity at 10 μM versus the activity at 10 μM of their standard substrate (hexanal or 4-NBA). Values are expressed as the mean ± SE.
To calculate the Km value of compound 18 as a substrate for ALDH3A1, several concentrations of compound 18 were used. Experimental values were fitted to the adaptation of the Michaelis–Menten equation for substrate inhibition [drawing 1] and shown as the mean ± SE.

Regarding `CCCN(CCC)c1ccc(C=O)cc1Br` [Compound 14, 3-Bromo-4-(dipropylamino)benzaldehyde], the IC50 in assay [1] (mean ± SE) is 8000 ± 1560 nM. For the same compound, the ALDH3A1 substrate activity result in assay [2] was “lower than 5%”.

For the compound `CCCN(CCC)c1ccc(C=O)cc1[N+](=O)[O-]` [Compound 18, 4-(Dipropylamino)-3-Nitrobenzaldehyde], the IC50 in assay [1] (mean ± SE) stood at 1610 ± 170 nM. Moreover, the “type of inhibition ALDH3A1” value in assay [1] (4-NBA as substrate) was “competitive”. For the same compound, in assay [1] (4-NBA as substrate, fit to competitive inhibition equation, mean ± SE), the Ki was found to be 300 ± 60 nM. Besides, in assay [1] (5-min preincubation), the “IC50 with versus without preincubation with the cofactor NADP+” value is recorded as “no differences were observed”. The compound also gave an ALDH3A1 substrate activity in assay [2] of 4.21%. The “Ksi as ALDH3A1 substrate” value in assay [2] (fit to substrate inhibition equation, mean ± SE) worked out at 113 ± 25 µM. Moreover, in assay [2] (mean ± SE), the Km was found to be 2.82 ± 0.35 µM and the “kcat as ALDH3A1 substrate” value was found to be 13.4 ± 0.7 min^–1.

The record behind these values is article PMC9007462 (Journal of Medicinal Chemistry, 2022).
